According to ChEMBL document CHEMBL5143628, “Enteroviral replication inhibition by N-Alkyl triazolopyrimidinone derivatives through a non-capsid binding mode” (Bioorg Med Chem Lett, 2022):
Active and inactive are the calls of the source. The calls are words filed in the database; no cut-off is given here.

Tests used:
rhinovirus B14 [1] = assay: Antiviral activity against Human rhinovirus B14 infected in human H1-HeLa cells assessed as reduction in virus induced cytopathic effect incubated for 3 days by MTT assay; type: functional, organism-based; settings: Rhinovirus B, H1-HeLa, 72 h
[2] = Cytotoxicity against human H1-HeLa cells assessed as reduction in cell viability by MTT assay; type: toxicity, cell-based; settings: H1-HeLa cells
[3] = Antiviral activity against Human rhinovirus A71 infected in human H1-HeLa cells assessed as reduction in virus induced cytopathic effect incubated for 3 days by MTT assay; type: functional, cell-based; settings: Rhinovirus A, H1-HeLa, 72 h
rhinovirus A21 = assay: Antiviral activity against Human rhinovirus A21 infected in human H1-HeLa cells assessed as reduction in virus induced cytopathic effect incubated for 3 days by MTT assay; type: functional, organism-based; settings: Rhinovirus A, H1-HeLa, 72 h
CYP2C9 = CYP2C9 (Homo sapiens, UniProt P11712); assay: Inhibition of human CYP2C9 at 10 uM incubated for 20 mins in presence of NADPH regenerating system by luminescence assay relative to control; type: ADME
Rhinovirus A = assay: Antiviral activity against Rhinovirus A33 infected in human H1-HeLa cells assessed as reduction in virus induced cytopathic effect incubated for 3 days by MTT assay; type: functional, cell-based; settings: Rhinovirus A, 33, H1-HeLa, 72 h
rhinovirus A16 = assay: Antiviral activity against Human rhinovirus 16 infected in human H1-HeLa cells assessed as reduction in virus induced cytopathic effect incubated for 3 days by MTT assay; type: functional, organism-based; settings: Rhinovirus A, 72 h
rhinovirus B86 = assay: Antiviral activity against Human rhinovirus 86 infected in human H1-HeLa cells assessed as reduction in virus induced cytopathic effect incubated for 3 days by MTT assay; type: functional, organism-based; settings: Rhinovirus B, 72 h
[4] = Selectivity index, ratio of CC50 for cytotoxicity against human H1-HeLa cells to EC50 for antiviral activity against Human rhinovirus B14 infected in human H1-HeLa cells; type: toxicity, cell-based; settings: H1-HeLa cells, read-out: Ratio CC50/EC50
rhinovirus B14 [5] = assay: Antiviral activity against Human rhinovirus B14 infected in human H1-HeLa cells assessed as reduction in viral replication by measuring viral production measured 3 days post infection by crystal violet staining based plaque reduction assay; type: functional, organism-based; settings: dose 0.4-30 µM, time 3.0 day, DDE = dose-dependent effect
rhinovirus A2 = assay: Antiviral activity against Human rhinovirus 2 infected in human H1-HeLa cells assessed as reduction in virus induced cytopathic effect incubated for 3 days by MTT assay; type: functional, organism-based; settings: Rhinovirus A, 72 h
rhinovirus B14 [6] = assay: Antiviral activity against Human rhinovirus B14 infected in human H1-HeLa cells assessed as reduction in viral titre at 1 uM pretreated for 1 hr followed by viral infection and measured immediately by time-of-addition assay; type: functional, organism-based
Rhinovirus B = assay: Antiviral activity against Rhinovirus B91 infected in human H1-HeLa cells assessed as reduction in virus induced cytopathic effect incubated for 3 days by MTT assay; type: functional, organism-based; settings: Rhinovirus B, 91, H1-HeLa, 72 h
rhinovirus A1B = assay: Antiviral activity against Rhinovirus A1B infected in human H1-HeLa cells assessed as reduction in virus induced cytopathic effect incubated for 3 days by MTT assay; type: functional, organism-based; settings: Rhinovirus A, 72 h
[7] = Selectivity index, ratio of CC50 for cytotoxicity against human H1-HeLa cells to EC50 for antiviral activity against Human rhinovirus A21 infected in human H1-HeLa cells; type: toxicity, cell-based; settings: H1-HeLa cells, read-out: Ratio CC50/EC50
[8] = Selectivity index, ratio of CC50 for cytotoxicity against human H1-HeLa cells to EC50 for antiviral activity against Human rhinovirus A71 infected in human H1-HeLa cells; type: toxicity, cell-based; settings: H1-HeLa cells, read-out: Ratio CC50/EC50
Poliovirus 3 = assay: Antiviral activity against Human poliovirus 3 infected in human H1-HeLa cells assessed as reduction in virus induced cytopathic effect incubated for 2 days by MTT assay; type: functional, organism-based; settings: Enterovirus C, 48 h
Coxsackievirus B1 = assay: Antiviral activity against Human coxsackievirus B1 infected in human H1-HeLa cells assessed as reduction in virus induced cytopathic effect incubated for 2 days by MTT assay; type: functional, organism-based; settings: Enterovirus B, 48 h
rhinovirus B14 [9] = assay: Antiviral activity against Human rhinovirus B14 infected in human H1-HeLa cells assessed as reduction in viral titre at 0.1 uM pretreated for 1 hr followed by viral infection and measured after 6 hrs by time-of-addition assay; type: functional, organism-based

CYP2C9, sequence (P11712 whole entry): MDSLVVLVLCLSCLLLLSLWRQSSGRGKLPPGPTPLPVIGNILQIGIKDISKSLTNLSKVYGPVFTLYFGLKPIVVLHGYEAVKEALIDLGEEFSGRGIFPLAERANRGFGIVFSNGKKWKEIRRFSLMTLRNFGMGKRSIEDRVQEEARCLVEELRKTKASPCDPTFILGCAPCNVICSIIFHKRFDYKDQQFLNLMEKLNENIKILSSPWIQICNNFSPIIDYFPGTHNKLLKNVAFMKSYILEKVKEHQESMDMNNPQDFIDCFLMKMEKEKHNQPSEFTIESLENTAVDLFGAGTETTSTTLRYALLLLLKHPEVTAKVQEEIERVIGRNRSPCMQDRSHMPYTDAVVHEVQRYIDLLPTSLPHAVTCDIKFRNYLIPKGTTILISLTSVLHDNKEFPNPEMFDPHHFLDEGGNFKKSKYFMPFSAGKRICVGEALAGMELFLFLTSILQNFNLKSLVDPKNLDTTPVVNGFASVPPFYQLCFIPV

Compound | EC50 (rhinovirus B14 [1]) [µM] | CC50 [2] [µM] | EC50 [3] [µM] | EC50 (rhinovirus A21) [µM] | selectivity ratio [4] | selectivity ratio [7] | selectivity ratio [8] | other results
CC(C)CCn1c(=O)c2c3c(sc2n2cnnc12)CC(C(C)(C)C)CC3 (stereo not drawn) | > 100 | > 100 | > 100 | > 100 |  |  |  | 
Nc1ccc(S(=O)(=O)Nc2ccnn2-c2ccccc2)cc1 [SULFAPHENAZOLE] |  |  |  |  |  |  |  | inhibition at 20 min, 10 µM (CYP2C9): 85.8%
Cc1cc(CCCOc2c(C)cc(-c3noc(C(F)(F)F)n3)cc2C)on1 [PLECONARIL] | 0.2 | 20.8 | 0.017 | 0.17 | 145 | 161 | 1700 | EC50 (Rhinovirus A): 0.45 µM; EC50 (rhinovirus A16): 0.51 µM; EC50 (rhinovirus B86): 0.29 µM; Activity (rhinovirus B14 [5]): Dde; EC50 (rhinovirus A2): 0.08 µM; Activity (rhinovirus B14 [6]): Active; EC50 (Rhinovirus B): 1.4 µM; EC50 (rhinovirus A1B): 0.24 µM
CC(C)(C)C1CCc2c(sc3c2c(=O)n(-c2ccccc2)c2nncn32)C1 (stereo not drawn) | 5 | 18.7 | 2.3 | 5.1 | 3.7 | 3.6 | 8.1 | 
CCn1c(=O)c2c3c(sc2n2cnnc12)CC(C(C)(C)C)CC3 (stereo not drawn) | 14.1 | > 100 | 3.7 | 14.7 | > 7 | > 6.8 | > 27 | EC50 (Poliovirus 3): 3.8 µM; EC50 (Coxsackievirus B1): > 100 µM
CCCCCCn1c(=O)c2c3c(sc2n2cnnc12)CC(C(C)(C)C)CC3 (stereo not drawn) | > 100 | > 100 | > 100 | > 100 |  |  |  | 
CCOC(=O)/C=C/[C@H](CC1CCNC1=O)NC(=O)[C@@H](CC(=O)[C@@H](NC(=O)c1cc(C)on1)C(C)C)Cc1ccc(F)cc1 (stereo partly drawn) |  |  |  |  |  |  |  | Activity (rhinovirus B14 [9]): Active
Cn1c(=O)c2c3c(sc2n2cnnc12)CC(C(C)(C)C)CC3 (stereo not drawn) | > 100 | > 100 | 23 | > 100 |  |  | > 4.3 | EC50 (Poliovirus 3): > 100 µM; EC50 (Coxsackievirus B1): > 100 µM
CC(C)(C)C1CCc2c(sc3c2c(=O)n(C2CCCC2)c2nncn32)C1 (stereo not drawn) | > 100 | > 100 | 12.1 | > 100 |  |  | > 8.2 | 
